Laboratory results published in patent US20250154109A1, “SODIUM CHANNEL BLOCKING COMPOUNDS, DERIVATIVES THEREOF, AND METHODS OF THEIR USE” (LATIGO BIOTHERAPEUTICS, INC, priority 2022, published 2025).
Counter-ions that a name gives are not always drawn. Like-named read-outs stand apart in the source and are kept apart here.

Target: human Nav1.8 (Homo sapiens, UniProt Q9Y5Y9)
Test: SyncroPatch384PE assay (automated patch clamp)
Format: cell-based
Settings: human Nav1.8/b3 CHO cells
[1] = inactivated state block (P2 measurement), read-out: P2 IC50
[2] = resting state block (P1 measurement), read-out: P1 IC50

Sequence of human Nav1.8 (Q9Y5Y9 whole entry): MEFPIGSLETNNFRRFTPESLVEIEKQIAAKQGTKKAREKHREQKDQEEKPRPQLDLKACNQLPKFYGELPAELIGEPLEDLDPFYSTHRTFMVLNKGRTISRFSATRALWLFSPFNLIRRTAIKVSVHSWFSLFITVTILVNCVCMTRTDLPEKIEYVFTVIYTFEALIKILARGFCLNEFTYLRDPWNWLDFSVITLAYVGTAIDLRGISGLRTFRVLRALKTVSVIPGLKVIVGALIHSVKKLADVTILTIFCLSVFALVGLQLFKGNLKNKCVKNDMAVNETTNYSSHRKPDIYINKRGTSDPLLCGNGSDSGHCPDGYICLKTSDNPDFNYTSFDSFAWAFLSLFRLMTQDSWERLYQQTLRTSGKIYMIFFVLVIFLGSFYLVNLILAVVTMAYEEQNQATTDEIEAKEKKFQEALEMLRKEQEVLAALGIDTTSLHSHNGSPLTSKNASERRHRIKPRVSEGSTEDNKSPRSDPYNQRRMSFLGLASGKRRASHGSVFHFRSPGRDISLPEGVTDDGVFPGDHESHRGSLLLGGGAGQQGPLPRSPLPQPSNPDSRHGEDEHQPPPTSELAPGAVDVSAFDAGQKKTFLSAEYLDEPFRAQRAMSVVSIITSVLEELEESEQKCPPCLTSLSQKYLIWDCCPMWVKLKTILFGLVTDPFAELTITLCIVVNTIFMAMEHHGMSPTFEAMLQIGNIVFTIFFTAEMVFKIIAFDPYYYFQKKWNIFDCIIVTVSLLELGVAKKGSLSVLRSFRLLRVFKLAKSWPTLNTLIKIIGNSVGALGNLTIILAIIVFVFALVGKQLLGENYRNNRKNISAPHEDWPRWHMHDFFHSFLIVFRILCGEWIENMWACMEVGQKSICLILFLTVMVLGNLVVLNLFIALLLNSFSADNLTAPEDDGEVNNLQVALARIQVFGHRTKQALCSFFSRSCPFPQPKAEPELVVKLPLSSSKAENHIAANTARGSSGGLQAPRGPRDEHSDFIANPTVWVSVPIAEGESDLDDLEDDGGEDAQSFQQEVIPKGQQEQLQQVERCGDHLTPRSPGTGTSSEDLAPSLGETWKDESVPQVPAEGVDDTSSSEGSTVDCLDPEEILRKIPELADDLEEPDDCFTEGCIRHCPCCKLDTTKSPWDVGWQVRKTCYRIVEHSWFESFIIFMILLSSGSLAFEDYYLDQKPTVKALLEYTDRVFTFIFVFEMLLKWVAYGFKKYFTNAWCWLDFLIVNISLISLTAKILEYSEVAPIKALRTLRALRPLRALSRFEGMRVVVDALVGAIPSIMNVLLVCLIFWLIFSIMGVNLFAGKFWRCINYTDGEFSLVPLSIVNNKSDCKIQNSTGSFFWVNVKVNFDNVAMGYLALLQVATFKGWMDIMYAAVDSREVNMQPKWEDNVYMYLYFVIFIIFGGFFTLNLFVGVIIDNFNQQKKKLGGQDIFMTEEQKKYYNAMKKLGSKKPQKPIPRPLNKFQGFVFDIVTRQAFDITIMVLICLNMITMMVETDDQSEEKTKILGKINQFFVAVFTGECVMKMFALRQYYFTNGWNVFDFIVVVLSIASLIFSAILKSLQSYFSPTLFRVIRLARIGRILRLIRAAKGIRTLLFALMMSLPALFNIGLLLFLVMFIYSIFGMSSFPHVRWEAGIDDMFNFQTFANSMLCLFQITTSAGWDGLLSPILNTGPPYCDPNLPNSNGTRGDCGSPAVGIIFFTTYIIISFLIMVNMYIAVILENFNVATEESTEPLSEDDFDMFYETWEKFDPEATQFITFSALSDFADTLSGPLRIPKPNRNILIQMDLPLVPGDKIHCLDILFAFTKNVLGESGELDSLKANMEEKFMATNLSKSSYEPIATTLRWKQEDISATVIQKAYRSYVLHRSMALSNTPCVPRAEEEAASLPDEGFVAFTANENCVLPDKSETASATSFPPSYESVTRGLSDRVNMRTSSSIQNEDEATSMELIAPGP

Row | IC50 [1] | IC50 [2] | SMILES
1 | ≤ 5 nM | ≤ 5 nM | Cc1c(-c2ccc(Cl)c(F)c2)cnc(N2CCCC(F)(F)CC2)c1C(=O)Nc1cccc([S@](C)(=N)=O)c1 [Example 166, (R)-5-(4-chloro-3-fluorophenyl)-2-(4,4-difluoroazepan-1-yl)-4-methyl-N-(3-(S-methylsulfonimidoyl)phenyl)nicotinamide]
2 | ≤ 5 nM | ≤ 5 nM | C[S@@](=N)(=O)c1cccc(NC(=O)c2cc(Cl)c(C(F)(F)F)cc2N2CCC(C(F)(F)F)CC2)c1 [Example 219, (R)-5-chloro-N-(3-(S-methylsulfonimidoyl)phenyl)-4-(trifluoromethyl)-2-(4-(trifluoromethyl)piperidin-1-yl)benzamide]
3 | ≤ 5 nM | ≤ 5 nM | Cc1c(-c2ccc(C#N)cc2)cnc(N2CCCC(F)(F)CC2)c1C(=O)Nc1cccc([S@](C)(=N)=O)c1 [Example 49, (R)-5-(4-cyanophenyl)-2-(4,4-difluoroazepan-1-yl)-4-methyl-N-(3-(S-methylsulfonimidoyl)phenyl)nicotinamide]
4 | 5 to 50 nM | 5 to 50 nM | Cc1c(C#N)cnc(N2CCCC(F)(F)CC2)c1C(=O)Nc1ccnc([S@](C)(=N)=O)c1 [Example 201, (R)-5-cyano-2-(4,4-difluoroazepan-1-yl)-4-methyl-N-(2-(S-methylsulfonimidoyl)pyridin-4-yl)nicotinamide]
5 | ≤ 5 nM | ≤ 5 nM | Cc1c(-c2ccc(F)cc2)cnc(N2CCCC(F)(F)CC2)c1C(=O)Nc1cccc(S(C)(=N)=O)c1 (stereo not drawn) [Example 88, 2-(4,4-difluoroazepan-1-yl)-5-(4-fluorophenyl)-4-methyl-N-(3-(S-methylsulfonimidoyl)phenyl)nicotinamide]
6 | > 200 nM | > 200 nM | CS(=N)(=O)c1cccc(NC(=O)c2cc(C(F)(F)F)nnc2N2CCC3(CC2)CC3)c1 (stereo not drawn) [Example 14, N-(3-(S-methylsulfonimidoyl)phenyl)-3-(6-azaspiro[2.5]octan-6-yl)-6-(trifluoromethyl)pyridazine-4-carboxamide]
7 | > 200 nM | > 200 nM | CS(=O)(=O)c1cccc(NC(=O)c2nnc(C(F)(F)F)cc2N2CCCC(F)(F)CC2)c1 [Example 39, 4-(4,4-Difluoroazepan-1-yl)-N-(3-(methylsulfonyl)phenyl)-6-(trifluoromethyl)pyridazine-3-carboxamide]
8 | ≤ 5 nM | ≤ 5 nM | Cc1c(C#N)c(C(F)(F)F)nc(N2CCCC(F)(F)CC2)c1C(=O)Nc1cccc([S@@](C)(=O)=NC(=O)C(C)(C)N)c1 [Example 227, (R)-N-(3-(N-(2-amino-2-methylpropanoyl)-S-methylsulfonimidoyl)phenyl)-5-cyano-2-(4,4-difluoroazepan-1-yl)-4-methyl-6-(trifluoromethyl)nicotinamide formate]
9 | 50 to 100 nM | 50 to 100 nM | Cc1c(-c2ccccc2)nnc(N2CCCC(F)(F)CC2)c1C(=O)Nc1cccc([S@](C)(=N)=O)c1 [Example 118, (R)-3-(4,4-difluoroazepan-1-yl)-5-methyl-N-(3-(S-methylsulfonimidoyl)phenyl)-6-phenylpyridazine-4-carboxamide]
10 | ≤ 5 nM | ≤ 5 nM | CNCC(=O)N=[S@](C)(=O)c1cccc(NC(=O)c2c(N3CCCC(F)(F)CC3)ncc(-c3ccc(F)c(F)c3)c2C)c1 [Example 60, (R)-2-(4,4-difluoroazepan-1-yl)-5-(3,4-difluorophenyl)-4-methyl-N-(3-(S-methyl-N-(methylglycyl)sulfonimidoyl)phenyl)nicotinamide]
11 | > 200 nM | > 200 nM | Cc1c(C(F)(F)F)nnc(N2CCCC(F)(F)CC2)c1C(=O)NC12CC(C(N)=O)(C1)C2 [Example 128, N-(3-carbamoylbicyclo[1.1.1]pentan-1-yl)-3-(4,4-difluoroazepan-1-yl)-5-methyl-6-(trifluoromethyl)pyridazine-4-carboxamide]
12 | 5 to 50 nM | 5 to 50 nM | Cc1ncc(-c2cnc(N3CCCC(F)(F)CC3)c(C(=O)Nc3cccc([S@](C)(=N)=O)c3)c2C)o1 [Example 178, (R)-2-(4,4-difluoroazepan-1-yl)-4-methyl-5-(2-methyloxazol-5-yl)-N-(3-(S-methylsulfonimidoyl)phenyl)nicotinamide]
13 | 5 to 50 nM | 5 to 50 nM | Cc1c(-c2cnn(C)c2)cnc(N2CCCC(F)(F)CC2)c1C(=O)Nc1cccc([S@@](C)(=O)=NC(=O)C2(N)CC2)c1 [Example 53, (R)-N-(3-(N-(1-aminocyclopropane-1-carbonyl)-S-methylsulfonimidoyl)phenyl)-2-(4,4-difluoroazepan-1-yl)-4-methyl-5-(1-methyl-1H-pyrazol-4-yl)nicotinamide formate]
14 | 5 to 50 nM | 5 to 50 nM | Cc1c(-c2cnn(C)c2)cnc(N2CCCC(F)(F)CC2)c1C(=O)Nc1cccc([S@@](C)(=O)=NC(=O)[C@@H](C)O)c1 [Example 230, 2-(4,4-difluoroazepan-1-yl)-N-(3-((R)-N-((R)-2-hydroxypropanoyl)-S-methylsulfonimidoyl)phenyl)-4-methyl-5-(1-methyl-1H-pyrazol-4-yl)nicotinamide]
15 | ≤ 5 nM | ≤ 5 nM | Cc1c(C(=O)Nc2cccc([S@](C)(=N)=O)c2)c(N2CCCC(F)(F)CC2)nc(C(F)(F)F)c1-c1ccc(C#N)cc1 [Example 131, (R)-5-(4-cyanophenyl)-2-(4,4-difluoroazepan-1-yl)-4-methyl-N-(3-(S-methylsulfonimidoyl)phenyl)-6-(trifluoromethyl)nicotinamide]
16 | ≤ 5 nM | ≤ 5 nM | Cc1nc(N2CCCC(F)(F)CC2)c(C(=O)Nc2cccc(S(=N)(N)=O)c2)cc1C(F)(F)F (stereo not drawn) [Example 121, 2-(4,4-difluoroazepan-1-yl)-6-methyl-N-(3-sulfamidimidoylphenyl)-5-(trifluoromethyl)nicotinamide]
17 | > 200 nM | > 200 nM | Cc1c(C(N)=O)cnc(N2CCCC(F)(F)CC2)c1C(=O)Nc1cccc([S@](C)(=N)=O)c1 [Example 129, (R)-2-(4,4-difluoroazepan-1-yl)-4-methyl-N3-(3-(S-methylsulfonimidoyl)phenyl)pyridine-3,5-dicarboxamide]
18 | ≤ 5 nM | ≤ 5 nM | CNCC(=O)N=[S@](C)(=O)c1cccc(NC(=O)c2c(N3CCCC(F)(F)CC3)ncc(C#N)c2C)c1 [Example 126, (R)-5-cyano-2-(4,4-difluoroazepan-1-yl)-4-methyl-N-(3-(S-methyl-N-(methylglycyl)sulfonimidoyl)phenyl)nicotinamide]
19 | 50 to 100 nM | 50 to 100 nM | Cc1c(-c2ccc(C#N)cc2)nnc(N2CCCC(F)(F)CC2)c1C(=O)Nc1cccc([S@](C)(=N)=O)c1 [Example 154, (R)-6-(4-cyanophenyl)-3-(4,4-difluoroazepan-1-yl)-5-methyl-N-(3-(S-methylsulfonimidoyl)phenyl)pyridazine-4-carboxamide]
20 | ≤ 5 nM | ≤ 5 nM | Cc1c(-c2ccc(C#N)cc2)cnc(N2CCCC(F)(F)CC2)c1C(=O)Nc1cccc(S(C)(=N)=O)c1 (stereo not drawn) [Example 81]

Row | SMILES | IC50 [1] | IC50 [2]
21 | CNS(=N)(=O)c1cc(NC(=O)c2cc(C(F)(F)F)c(C)nc2N2CCCC(F)(F)CC2)ccn1 (stereo not drawn) [Example 107, 2-(4,4-difluoroazepan-1-yl)-6-methyl-N-(2-(N-methylsulfamidimidoyl)pyridine-4-yl)-5-(trifluoromethyl)nicotinamide] | ≤ 5 nM | ≤ 5 nM
